Measured values reported in PubChem BioAssay (NCI).
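These data come from cells grown in 96-well plates and exposed to compound for 48 hours at five concentrations. TGI: concentration producing complete growth inhibition.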

Tests used:
Assay in all cases: NCI-60 cell line screen, 48 h
[1] = system: 786-0 renal
[2] = system: NCI-H23 lung
[3] = system: HT29 colon
[4] = system: SF-295 CNS
[5] = system: HCC-2998 colon
[6] = system: ACHN renal
[7] = system: MDA-N
[8] = system: HL-60(TB) leukemia
[9] = system: SF-268 CNS
[10] = system: SK-MEL-5 melanoma
[11] = system: CCRF-CEM leukemia
[12] = system: T-47D breast
[13] = system: K-562 leukemia
[14] = system: SF-539 CNS
[15] = system: NCI-H522 lung
[16] = system: CAKI-1 renal
[17] = system: HS 578T breast
[18] = system: OVCAR-5 ovarian
[19] = system: A498 renal
[20] = system: RPMI-8226 leukemia
[21] = system: M14 melanoma
[22] = system: NCI-H226 lung
[23] = system: MOLT-4 leukemia
[24] = system: SNB-75 CNS
[25] = system: SK-OV-3 ovarian
[26] = system: OVCAR-3 ovarian
[27] = system: HCT-15 colon
[28] = system: MDA-MB-435
[29] = system: IGROV1 ovarian
[30] = system: RXF 393 renal
[31] = system: LOX IMVI melanoma
[32] = system: NCI/ADR-RES ovarian
[33] = system: HOP-62 NSCLC
[34] = system: TK-10 renal
[35] = system: HOP-92 NSCLC
[36] = system: OVCAR-8 ovarian
[37] = system: UACC-62 melanoma
[38] = system: SN12C renal
[39] = system: NCI-H460 lung
[40] = system: UO-31 renal
[41] = system: DU-145 prostate
[42] = system: UACC-257 melanoma
[43] = system: EKVX NSCLC
[44] = system: OVCAR-4 ovarian
[45] = system: SW-620 colon
[46] = system: KM12 colon
[47] = system: HCT-116 colon
[48] = system: MCF7 breast
[49] = system: COLO 205 colon
[50] = system: SNB-19 CNS
[51] = system: SR leukemia
[52] = system: U251 CNS
[53] = system: BT-549 breast
[54] = system: MALME-3M melanoma
[55] = system: MDA-MB-231 breast
[56] = system: A549 NSCLC
[57] = system: SK-MEL-2 melanoma
[58] = system: PC-3 prostate
[59] = system: SK-MEL-28 melanoma

`O=C1C2CCCC2N1Cc1ccccc1` (stereo not drawn) was tested, and the TGI [1] was > 100 µM, the TGI [2] was > 100 µM and the TGI [3] was > 100 µM. For the same compound, the TGI [4] was > 100 µM, the TGI [5] was > 100 µM and the TGI [6] was > 100 µM. The TGI [7] was > 100 µM, the TGI [8] was > 100 µM and the TGI [9] was > 100 µM. For the same compound, the TGI [10] was > 100 µM, the TGI [11] was > 100 µM and the TGI [12] was > 100 µM. For the same compound, the TGI [13] was > 100 µM, the TGI [14] was > 100 µM and the TGI [15] was > 100 µM. For the same compound, the TGI [16] was > 100 µM, the TGI [17] was > 100 µM and the TGI [18] was > 100 µM. The TGI [19] was > 100 µM, the TGI [20] was > 100 µM and the TGI [21] was 26.9 µM. The TGI [22] was > 100 µM, the TGI [23] was > 100 µM and the TGI [24] was > 100 µM. For the same compound, the TGI [25] was > 100 µM, the TGI [26] was > 100 µM and the TGI [27] was > 100 µM. The TGI [28] was > 100 µM, the TGI [29] was > 100 µM and the TGI [30] was > 100 µM. For the same compound, the TGI [31] was > 100 µM, the TGI [32] was > 100 µM and the TGI [33] was > 100 µM. The TGI [34] was > 100 µM, the TGI [35] was > 100 µM and the TGI [36] was > 100 µM. The TGI [37] was > 100 µM, the TGI [38] was > 100 µM and the TGI [39] was > 100 µM. The TGI [40] was 28.5 µM, the TGI [41] was > 100 µM and the TGI [42] was > 100 µM. For the same compound, the TGI [43] was > 100 µM, the TGI [44] was > 100 µM and the TGI [45] was > 100 µM. The TGI [46] was > 100 µM, the TGI [47] was > 100 µM and the TGI [48] was > 100 µM. For the same compound, the TGI [49] was > 100 µM.

Work on `CC[C@@]1(O)C(=O)OCc2c1cc1n(c2=O)Cc2c-1nc1ccccc1c2/C=N\NC(=O)C(N)Cc1ccc(O)cc1` (stereo partly drawn) yielded a TGI [1] of 6.55 µM, a TGI [2] of 1.82 µM and a TGI [4] of 3.16 µM. The TGI [50] was > 31.6 µM, the TGI [51] was 0.396 µM and the TGI [6] was 2.75 µM. For the same compound, the TGI [7] was > 31.6 µM, the TGI [8] was 4.69 µM and the TGI [10] was 2.7 µM. The TGI [11] was 1.15 µM, the TGI [12] was > 25.7 µM and the TGI [13] was > 100 µM. The TGI [14] was 0.217 µM, the TGI [15] was 5.21 µM and the TGI [19] was 3.65 µM. It also gave a TGI [52] of 5.04 µM, a TGI [20] of 5.62 µM and a TGI [22] of 2.64 µM. For the same compound, the TGI [23] was 1.59 µM, the TGI [25] was 9.77 µM and the TGI [53] was > 31.6 µM. The TGI [27] was > 31.6 µM, the TGI [30] was 4.38 µM and the TGI [31] was 2.77 µM. For the same compound, the TGI [34] was > 31.6 µM, the TGI [35] was 5.64 µM and the TGI [37] was 1.71 µM. For the same compound, the TGI [38] was 7.75 µM, the TGI [39] was 10.8 µM and the TGI [54] was 7.8 µM. For the same compound, the TGI [40] was 8.76 µM, the TGI [42] was 18.9 µM and the TGI [44] was > 31.6 µM. For the same compound, the TGI [55] was > 31.6 µM, the TGI [47] was 4.44 µM and the TGI [49] was > 31.6 µM.

With `C[C@H](CCC(=O)O)[C@H]1CC[C@H]2[C@@H]3[C@@H](O)C[C@@H]4C[C@H](O)CC[C@]4(C)[C@H]3C[C@H](O)[C@]12C` the TGI [1] was > 100 µM, the TGI [2] was > 100 µM and the TGI [3] was > 100 µM. For the same compound, the TGI [50] was > 100 µM, the TGI [51] was > 100 µM and the TGI [5] was > 100 µM. For the same compound, the TGI [6] was > 100 µM, the TGI [7] was > 100 µM and the TGI [8] was > 100 µM. The TGI [9] was > 100 µM, the TGI [56] was > 100 µM and the TGI [11] was > 100 µM. For the same compound, the TGI [12] was > 100 µM, the TGI [13] was > 100 µM and the TGI [14] was > 100 µM. For the same compound, the TGI [15] was > 100 µM, the TGI [16] was > 100 µM and the TGI [57] was > 100 µM. The TGI [17] was > 100 µM, the TGI [18] was > 100 µM and the TGI [19] was > 100 µM. For the same compound, the TGI [52] was > 100 µM, the TGI [20] was > 100 µM and the TGI [21] was > 100 µM. The TGI [22] was > 100 µM, the TGI [23] was > 100 µM and the TGI [24] was > 100 µM. The TGI [27] was > 100 µM, the TGI [28] was > 100 µM and the TGI [29] was > 100 µM. The TGI [30] was > 100 µM, the TGI [31] was > 100 µM and the TGI [32] was > 100 µM. For the same compound, the TGI [33] was > 100 µM, the TGI [34] was > 100 µM and the TGI [35] was > 100 µM. For the same compound, the TGI [58] was > 100 µM, the TGI [36] was > 100 µM and the TGI [59] was > 100 µM. The TGI [37] was > 100 µM, the TGI [38] was > 100 µM and the TGI [39] was > 100 µM. For the same compound, the TGI [54] was > 100 µM, the TGI [41] was > 100 µM and the TGI [42] was > 100 µM. For the same compound, the TGI [43] was > 100 µM, the TGI [44] was > 100 µM and the TGI [45] was > 100 µM. For the same compound, the TGI [46] was > 100 µM, the TGI [55] was > 100 µM and the TGI [47] was > 100 µM. The TGI [48] was > 100 µM and the TGI [49] was > 100 µM.
